# ChEMBL document CHEMBL1201862, “PubChem BioAssay data set” (2004)
#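 Growth conditions: 96-well plates. Treatment: test compound, 48 hours, 5 concentrations. Analysis: linear interpolation between bracketing concentrations; unreached endpoints set to highest concentration. GI50 is the concentration that inhibits growth by half.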 Calls of active or inactive are those of the source. Cut-off read from the data, not from the text of the source: active = GI50 up to about 1.1 µM and inactive = higher.
# Key:
# Test in all cases: NCI tumour cell line growth inhibition, 48 h
# SK-OV-3 = system: SK-OV-3
# SF-295 = system: SF-295
# OVCAR-8 = system: OVCAR-8
# RPMI-8226 = system: RPMI-8226
# SR = system: SR
# RXF 393 = system: RXF 393
# MOLT-4 = system: MOLT-4
# SNB-75 = system: SNB-75
# CCRF-CEM = system: CCRF-CEM
# HL-60 = system: HL-60
# COLO 205 = system: COLO 205
# SNB-19 = system: SNB-19
# SW-620 = system: SW-620
# Malme-3M = system: Malme-3M
# SF-268 = system: SF-268
# UO-31 = system: UO-31
# M14 = system: M14
# EKVX = system: EKVX
# SK-MEL-5 = system: SK-MEL-5
# IGROV-1 = system: IGROV-1
# K562 = system: K562
# HOP-92 = system: HOP-92
# NCI-H23 = system: NCI-H23
# U-251 = system: U-251
# Hs-578T = system: Hs-578T
# SK-MEL-28 = system: SK-MEL-28
# HCT-15 = system: HCT-15
# MDA-N = system: MDA-N
# KM12 = system: KM12
# TK-10 = system: TK-10
# PC-3 = system: PC-3
# DU-145 = system: DU-145
# NCI/ADR-RES = system: NCI/ADR-RES
# CAKI-1 = system: CAKI-1
# A549 = system: A549
# OVCAR-5 = system: OVCAR-5
# T47D = system: T47D
# OVCAR-4 = system: OVCAR-4
# HCT-116 = system: HCT-116
# SN12C = system: SN12C
# NCI-H460 = system: NCI-H460
# A498 = system: A498
# SK-MEL-2 = system: SK-MEL-2
# OVCAR-3 = system: OVCAR-3
# HCC 2998 = system: HCC 2998
# 786-0 = system: 786-0
# MCF7 = system: MCF7
# UACC-257 = system: UACC-257
# ACHN = system: ACHN
# NCI-H522 = system: NCI-H522
# MDA-MB-435 = system: MDA-MB-435
# HOP-62 = system: HOP-62
# NCI-H226 = system: NCI-H226
# LOX IMVI = system: LOX IMVI
# MDA-MB-231 = system: MDA-MB-231
# UACC-62 = system: UACC-62
# HT-29 = system: HT-29
# SF-539 = system: SF-539
structure (smiles),measurement,setting,value
COc1cc(OC)c(OC)cc1/C=C\c1nccc2ccccc12,GI50,SK-OV-3,32.8 µM (inactive)
same,GI50,SF-295,24 µM (inactive)
same,GI50,OVCAR-8,23.2 µM (inactive)
same,GI50,RPMI-8226,18.7 µM (inactive)
same,GI50,SR,20.9 µM (inactive)
same,GI50,RXF 393,18.7 µM (inactive)
same,GI50,MOLT-4,16.1 µM (inactive)
same,GI50,SNB-75,23.9 µM (inactive)
same,GI50,CCRF-CEM,76.2 µM (inactive)
same,GI50,HL-60,18.7 µM (inactive)
same,GI50,COLO 205,22.5 µM (inactive)
same,GI50,SNB-19,18.5 µM (inactive)
same,GI50,SW-620,26.9 µM (inactive)
same,GI50,Malme-3M,33 µM (inactive)
same,GI50,SF-268,23.3 µM (inactive)
same,GI50,UO-31,16.8 µM (inactive)
same,GI50,M14,16.7 µM (inactive)
same,GI50,EKVX,22.2 µM (inactive)
same,GI50,SK-MEL-5,15.2 µM (inactive)
same,GI50,IGROV-1,28.5 µM (inactive)
same,GI50,K562,28.9 µM (inactive)
same,GI50,HOP-92,15.3 µM (inactive)
same,GI50,NCI-H23,23.4 µM (inactive)
same,GI50,U-251,24.9 µM (inactive)
same,GI50,Hs-578T,28.3 µM (inactive)
same,GI50,SK-MEL-28,29.3 µM (inactive)
same,GI50,HCT-15,> 10 µM
same,GI50,MDA-N,> 10 µM (inactive)
same,GI50,KM12,15.1 µM (inactive)
same,GI50,TK-10,27.8 µM (inactive)
same,GI50,PC-3,27.8 µM (inactive)
same,GI50,DU-145,16.3 µM (inactive)
same,GI50,NCI/ADR-RES,31.2 µM (inactive)
same,GI50,CAKI-1,22.5 µM (inactive)
same,GI50,A549,25.6 µM (inactive)
same,GI50,OVCAR-5,29.3 µM (inactive)
same,GI50,T47D,24.2 µM (inactive)
same,GI50,OVCAR-4,29.1 µM (inactive)
same,GI50,HCT-116,18.1 µM (inactive)
CC1(C)O[C@@H](CBr)C[C@H](C[C@H]2C[C@@H](O)C[C@@H](CCOCc3ccccc3)O2)O1,GI50,SN12C,30.4 µM (inactive)
same,GI50,SK-OV-3,18.1 µM (inactive)
same,GI50,SF-295,17 µM (inactive)
same,GI50,OVCAR-8,21.5 µM (inactive)
same,GI50,NCI-H460,29.9 µM (inactive)
same,GI50,A498,23 µM (inactive)
same,GI50,RPMI-8226,27.5 µM (inactive)
same,GI50,SR,27.7 µM (inactive)
same,GI50,MOLT-4,47.1 µM (inactive)
same,GI50,SK-MEL-2,16.4 µM (inactive)
same,GI50,SNB-75,20.5 µM (inactive)
same,GI50,OVCAR-3,19.4 µM (inactive)
same,GI50,CCRF-CEM,47.3 µM (inactive)
same,GI50,HCC 2998,24.6 µM (inactive)
same,GI50,COLO 205,17 µM (inactive)
same,GI50,SNB-19,25.5 µM (inactive)
same,GI50,SW-620,31.6 µM (inactive)
same,GI50,Malme-3M,17.3 µM (inactive)
same,GI50,SF-268,22 µM (inactive)
same,GI50,786-0,19.4 µM (inactive)
same,GI50,MCF7,20 µM (inactive)
same,GI50,UO-31,20.7 µM (inactive)
same,GI50,M14,23.5 µM (inactive)
same,GI50,EKVX,17.8 µM (inactive)
same,GI50,SK-MEL-5,30.3 µM (inactive)
same,GI50,IGROV-1,19.8 µM (inactive)
same,GI50,UACC-257,19 µM (inactive)
same,GI50,K562,40.2 µM (inactive)
same,GI50,HOP-92,25.5 µM (inactive)
same,GI50,ACHN,23.2 µM (inactive)
same,GI50,NCI-H23,16.3 µM (inactive)
same,GI50,U-251,31.8 µM (inactive)
same,GI50,NCI-H522,16.4 µM (inactive)
same,GI50,Hs-578T,25.6 µM (inactive)
same,GI50,SK-MEL-28,25.2 µM (inactive)
same,GI50,HCT-15,24.2 µM
same,GI50,KM12,21.5 µM (inactive)
same,GI50,TK-10,20.4 µM (inactive)
same,GI50,PC-3,20.1 µM (inactive)
same,GI50,DU-145,25.4 µM (inactive)
same,GI50,NCI/ADR-RES,18.7 µM (inactive)
same,GI50,CAKI-1,27.8 µM (inactive)
same,GI50,MDA-MB-435,23.5 µM (inactive)
same,GI50,A549,23.9 µM (inactive)
same,GI50,HOP-62,20.1 µM (inactive)
same,GI50,NCI-H226,17.5 µM (inactive)
same,GI50,OVCAR-5,18.7 µM (inactive)
same,GI50,T47D,14.9 µM (inactive)
same,GI50,LOX IMVI,26.2 µM (inactive)
same,GI50,OVCAR-4,21.6 µM (inactive)
same,GI50,HCT-116,21.3 µM (inactive)
same,GI50,MDA-MB-231,40.3 µM (inactive)
same,GI50,UACC-62,18.4 µM (inactive)
CC[C@H]1C[C@@H](O)[C@@H]2[C@H](O)[C@H](O)CN2C1,GI50,SN12C,> 100 µM (inactive)
same,GI50,SK-OV-3,> 100 µM (inactive)
same,GI50,SF-295,> 100 µM (inactive)
same,GI50,OVCAR-8,> 100 µM (inactive)
same,GI50,NCI-H460,> 100 µM (inactive)
same,GI50,RPMI-8226,> 100 µM (inactive)
same,GI50,MOLT-4,> 100 µM (inactive)
same,GI50,SK-MEL-2,> 100 µM (inactive)
same,GI50,SNB-75,> 100 µM (inactive)
same,GI50,OVCAR-3,> 100 µM (inactive)
same,GI50,CCRF-CEM,> 100 µM (inactive)
same,GI50,HL-60,> 100 µM (inactive)
same,GI50,HCC 2998,> 100 µM (inactive)
same,GI50,SNB-19,> 100 µM (inactive)
same,GI50,SW-620,> 100 µM (inactive)
same,GI50,Malme-3M,> 100 µM (inactive)
same,GI50,SF-268,> 100 µM (inactive)
same,GI50,786-0,> 100 µM (inactive)
same,GI50,MCF7,> 100 µM (inactive)
same,GI50,HT-29,> 100 µM (inactive)
same,GI50,M14,> 100 µM (inactive)
same,GI50,EKVX,> 100 µM (inactive)
same,GI50,SK-MEL-5,> 100 µM (inactive)
same,GI50,IGROV-1,> 100 µM (inactive)
same,GI50,UACC-257,> 100 µM (inactive)
same,GI50,K562,> 100 µM (inactive)
same,GI50,HOP-92,> 100 µM (inactive)
same,GI50,ACHN,> 100 µM (inactive)
same,GI50,U-251,> 100 µM (inactive)
same,GI50,NCI-H522,> 100 µM (inactive)
same,GI50,Hs-578T,> 100 µM (inactive)
same,GI50,SK-MEL-28,> 100 µM (inactive)
same,GI50,HCT-15,> 100 µM
same,GI50,MDA-N,> 100 µM (inactive)
same,GI50,KM12,> 100 µM (inactive)
same,GI50,TK-10,> 100 µM (inactive)
same,GI50,PC-3,> 100 µM (inactive)
same,GI50,DU-145,> 100 µM (inactive)
same,GI50,NCI/ADR-RES,> 100 µM (inactive)
same,GI50,MDA-MB-435,> 100 µM (inactive)
same,GI50,A549,> 100 µM (inactive)
same,GI50,NCI-H226,> 100 µM (inactive)
same,GI50,SF-539,> 100 µM (inactive)
same,GI50,OVCAR-5,> 100 µM (inactive)
same,GI50,T47D,> 100 µM (inactive)
same,GI50,LOX IMVI,> 100 µM (inactive)
same,GI50,OVCAR-4,> 100 µM (inactive)
same,GI50,HCT-116,> 100 µM (inactive)
